Measured values from patent publication US20240216344A1, “THIAZOLIDINEDIONE ANALOGS FOR THE TREATMENT OF NAFLD AND METABOLIC DISEASES” (Cirius Therapeutics, Inc., priority 2019, published 2024).
Like-named read-outs stand apart in the source and are kept apart here.

Legend:
patients with NASH [1] = conditions: cited from earlier work
patients with NASH [2] = conditions: cited from earlier work; remark: listed apart in the source
patients with NASH [3] = assay: Meta-analysis of 17 NASH clinical trials: change from baseline in LFTs and biomarkers by study arm, composite outcome; type: in vivo, human; conditions: 17 NASH clinical trials
Description: Meta-regressions of NASH clinical trials were performed to examine associations between biomarker and histological changes within treatment groups, and to additionally examine associations between treatment effects on biomarkers and on liver histology. Trials that met the following criteria were included: • Randomized controlled clinical trial • Paired biopsies performed at baseline and follow-up, scored using the NASH CRN system.
• Published results at baseline, follow-up, or changes from baseline for any the following liver injury markers or biomarkers: alanine aminotransferase (ALT), aspartate aminotransferase (AST), alkaline phosphatase, hemoglobin A1c (HbA1c), gamma-glutamyltransferase (GGT), insulin, cytokeratin-18 (CK-18), or Enhanced Liver Fibrosis (ELF) score. Variables selected were based on variables whose change was commonly reported in multiple studies. • Changes in histological scores for ballooning, inflammation, steatosis, and fibrosis, or the pre-determined endpoints of NASH resolution without worsening fibrosis or improvement in fibrosis with no worsening of NASH.
All results from a search of PubMed for the keywords (“nonalcoholic steatohepatitis” or “non-alcoholic steatohepatitis”) and (“clinical trial” or “randomized”) and filtered for “Clinical Trial” were reviewed. EudraCT and ClinicalTrials.gov were searched for the keyword “nonalcoholic steatohepatitis” with results further filtered for phase 2 or 3, interventional, terminated or completed trials. These three sources returned 265 (PubMed), 153 (ClinicalTrials.gov), and 56 (EudraCT) results, which were each individually reviewed for inclusion in the analysis. Data extracted by one analyst from each source that included means and SDs at baseline, end of study, and changes from baseline to end of study for continuous variables were verified and corrected by a second analyst. Where SDs were not available, any provided estimate of variation was used to derive the SD where possible; a plot-digitizer program was used where data were presented in figures only. Data for dichotomous endpoints were extracted as the number of subjects with the event and corresponding sample size.
Random effects weighted least squares meta-regressions with inverse variance weighting were used to examine the association of changes in ALT, AST, CK-18, HbA1c, fasting insulin levels, ELF, alkaline phosphatase and GGT with biopsy outcomes. CK-18[M30] was measured in all studies except EMMINENCE where CK-18[M651 was reported. These associations were assessed at an individual cohort level (within treatment group), as well as based on the treatment effect. Percent change from baseline in liver injury makers and biomarkers was used as the predictor when examining the associations in the individual cohorts with outcomes while the treatment ratio, the ratio of active to placebo with respect to the relative changes from baseline, was used as the predictor when assessing the association with the treatment effect on outcomes. Standardized mean changes (mean/SD) or standardized mean treatment differences (mean difference/pooled SD) were used for continuous outcomes and Freeman-Tukey double arcsine transformed proportions or log odds ratios were used for dichotomous outcomes. Meta-regression results were computed using the metafor package available in R. P-values <0.05 were considered statistically significant.
From the meta-regression results, ranks for the association with responses and treatment effects for each histologic outcome (changes in ballooning, inflammation, steatosis, and fibrosis; NASH resolution without worsening of fibrosis, and fibrosis improvement without worsening of NAS) were assigned across seven biomarkers (AST, GGT, HbA1c, insulin, CK-18, ELF, and alkaline phosphatase) for both the slope and the mediator p-value (ranks 1-7, with 7 assigned to the biomarker with the greatest slope or lowest p-value). An average rank across all outcomes was then assigned to each biomarker. […]

[4] = GEORGESCU trial, Telmisartan 20 mg
[5] = GEORGESCU, 20 mg, follow-up 20 months
[6] = GOLDEN trial, Elafibranor 120 mg
[7] = GOLDEN, 80 mg, follow-up 12 months
[8] = GOLDEN, 120 mg, follow-up 12 months
[9] = MADRIGAL trial, Resmetirom 80 mg
[10] = MADRIGAL, 80 mg, follow-up 9 months
[11] = PIVENS, Vitamin E arm, follow-up 22 months

CCCc1nc2c(C)cc(-c3nc4ccccc4n3C)cc2n1Cc1ccc(-c2ccccc2C(=O)O)cc1 [Telmisartan]
Change from Baseline, mean: Ballooning (patients with NASH [1]; [4]): −0.58 | Change from Baseline, mean: Fibrosis (patients with NASH [1]; [4]): −0.75 | Change from Baseline, mean: Inflammation (patients with NASH [1]; [4]): −0.36 | Change from Baseline, mean: Steatosis (patients with NASH [1]; [4]): −0.50 | % Change from Baseline ALT (patients with NASH [2]; [5]): −30.29% | % Change from Baseline AST (patients with NASH [2]; [5]): −34.64% | % Change from Baseline GGT (patients with NASH [2]; [5]): −2.83%

CSc1ccc(C(=O)/C=C/c2cc(C)c(OC(C)(C)C(=O)O)c(C)c2)cc1 [Elafibranor]
NASH Resolution (patients with NASH [1]; GOLDEN trial, Elafibranor 80 mg): 12/93 | Change from Baseline, mean: Ballooning (patients with NASH [1]; [6]): −0.07 | Change from Baseline, mean: Fibrosis (patients with NASH [1]; [6]): −0.07 | Change from Baseline, mean: Inflammation (patients with NASH [1]; [6]): −0.32 | Change from Baseline, mean: Steatosis (patients with NASH [1]; [6]): 0.02 | NASH Resolution (patients with NASH [1]; [6]): 17/89 | % Change from Baseline ALT (patients with NASH [2]; [7]): −9.72% | % Change from Baseline AST (patients with NASH [2]; [7]): −16.87% | % Change from Baseline Alk Phos (patients with NASH [2]; [7]): −25.87% | % Change from Baseline GGT (patients with NASH [2]; [7]): −34.54% | % Change from Baseline ALT (patients with NASH [2]; [8]): −19.75% | % Change from Baseline AST (patients with NASH [2]; [8]): −30.22% | % Change from Baseline Alk Phos (patients with NASH [2]; [8]): −26.41% | % Change from Baseline GGT (patients with NASH [2]; [8]): −41.68%

CC(C)c1cc(Oc2c(Cl)cc(-n3nc(C#N)c(=O)[nH]c3=O)cc2Cl)n[nH]c1=O [resmetiron, reference compound]
treatment effect on the surrogate endpoint (weighted average of changes in AST, CK-18, HbA1c) (patients with NASH [3]): largest treatment effects

CC(C)c1cc(Oc2c(Cl)cc(-n3nc(C#N)c(=O)[nH]c3=O)cc2Cl)n[nH]c1=O [Resmetirom]
Fibrosis Improvement (patients with NASH [1]; [9]): 21/73 | NASH Resolution (patients with NASH [1]; [9]): 18/73 | % Change from Baseline ALT (patients with NASH [2]; [10]): −30.80% | % Change from Baseline AST (patients with NASH [2]; [10]): −21.08% | % Change from Baseline Alk Phos (patients with NASH [2]; [10]): 7.85% | % Change from Baseline CK-18 (patients with NASH [2]; [10]): −35.15% | % Change from Baseline ELF (patients with NASH [2]; [10]): −7.17% | % Change from Baseline GGT (patients with NASH [2]; [10]): −18.76% | % Change from Baseline HbA1c (patients with NASH [2]; [10]): 0.63%

Vitamin E
Change from Baseline, mean: Ballooning (patients with NASH [1]; PIVENS trial, Vitamin E): −0.30 | Change from Baseline, mean: Fibrosis (patients with NASH [1]; PIVENS trial, Vitamin E): −0.30 | Change from Baseline, mean: Inflammation (patients with NASH [1]; PIVENS trial, Vitamin E): −0.60 | Change from Baseline, mean: Steatosis (patients with NASH [1]; PIVENS trial, Vitamin E): −0.70 | NASH Resolution (patients with NASH [1]; PIVENS trial, Vitamin E): 30/84 | % Change from Baseline ALT (patients with NASH [2]; [11]): −43.02% | % Change from Baseline AST (patients with NASH [2]; [11]): −36.10% | % Change from Baseline Alk Phos (patients with NASH [2]; [11]): −12.08% | % Change from Baseline GGT (patients with NASH [2]; [11]): −25.00% | % Change from Baseline Insulin (patients with NASH [2]; [11]): 2.73%
